Reference: patent publication US9113629B2, “4-amino-6-(4-substituted-phenyl)-picolinates and 6-amino-2-(4-substituted-phenyl)-pyrimidine-4-carboxylates and their use as herbicides” (DOW AGROSCIENCES LLC, priority 2013, dated 2015)

Tested on: test plant species in Direct Seeded Rice
Assay: Postemergence herbicidal activity in direct seeded rice (Table 13)
Type: in vivo
Details: BRAPP: broadleaf signalgrass, Brachiaria platyphylla; probit analysis
Source text: Seeds or nutlets of the desired test plant species were planted in a soil matrix prepared by mixing a loam soil (43 percent silt, 19 percent clay, and 38 percent sand, with a pH of about 8.1 and an organic matter content of about 1.5 percent) and river sand in an 80 to 20 ratio. The soil matrix was contained in plastic pots with a surface area of 139.7 cm^2. When required to ensure good germination and healthy plants, a fungicide treatment and/or other chemical or physical treatment was applied. The plants were grown for 10-17 d in a greenhouse with an approximate 14-h photoperiod which was maintained at about 29° C. during the day and 26° C. during the night. Nutrients and water were added on a regular basis and supplemental lighting was provided with overhead metal halide 1000-Watt lamps as necessary. The plants were employed for testing when they reached the second or third true leaf stage. A weighed amount, determined by the highest rate to be tested, of each test compound was placed in 25 mL glass vials and dissolved in a volume of 97:3 v/v acetone-DMSO to obtain 12× stock solutions. […] The concentrated stock solutions were added to the spray solutions so that the final acetone and DMSO concentrations were 16.2% and 0.5%, respectively. Spray solutions were diluted to the appropriate final concentrations with the addition of 10 mL of an aqueous mixture of 1.5% (v/v) Agri-dex crop oil concentrate. […] Compound requirements are based upon a 12 mL application volume at a rate of 187 L/ha. Formulated compounds were applied to the plant material with an overhead Mandel track sprayer equipped with […] nozzles calibrated to deliver 187 L/ha over an application area of 0.503 square meters (m^2) at a spray height of 18 inches (43 cm) above average plant canopy height. Control plants were sprayed in the same manner with the solvent blank. The treated plants and control plants were placed in a greenhouse as described above and watered by sub-irrigation to prevent wash-off of the test compounds. After 20-22 days, the condition of the test plants, compared with that of the untreated plants, was determined visually and scored on a scale of 0 to 100 percent where 0 corresponds to no injury and 100 corresponds to complete kill. By applying the well-accepted probit analysis as described by J. Berkson in Journal of the American Statistical Society, 48, 565 (1953) and by D. Finney in “Probit Analysis” Cambridge University Press (1952), the above data can be used to calculate GR20, GR50, GR80 and GR90 values, which are defined as growth reduction factors that correspond to the effective dose of herbicide required to kill or control 20 percent, 50 percent, 80 percent or 90 percent, respectively, of a target plant.

| SMILES | GR50 BRAPP [g ai/ha] | GR80 BRAPP [g ai/ha] |
| --- | --- | --- |
| Nc1cc(-c2ccc(Br)cc2F)nc(C(=O)O)c1Cl [Compound 74] | 1 | 5 |
| COC(=O)c1nc(-c2ccc(Br)cc2F)cc(N)c1Cl [Compound 93] | 1 | 1 |

Same assay, conditions: CYPSS: sedge (Cyperus difformis, esculentus, iria); probit analysis

| SMILES | GR50 CYPSS [g ai/ha] | GR80 CYPSS [g ai/ha] |
| --- | --- | --- |
| Nc1cc(-c2ccc(Br)cc2F)nc(C(=O)O)c1Cl [Compound 74] | 5 | 10 |
| COC(=O)c1nc(-c2ccc(Br)cc2F)cc(N)c1Cl [Compound 93] | 1 | 2 |

Same assay, conditions: ECHSS: barnyardgrass (Echinochloa crus-galli), junglerice (Echinochloa colonum); probit analysis

| SMILES | GR50 ECHSS [g ai/ha] | GR80 ECHSS [g ai/ha] |
| --- | --- | --- |
| Nc1cc(-c2ccc(Br)cc2F)nc(C(=O)O)c1Cl [Compound 74] | 1 | 1 |
| COC(=O)c1nc(-c2ccc(Br)cc2F)cc(N)c1Cl [Compound 93] | 1 | 1 |

Same assay, conditions: LEFSS: sprangletop (Leptochloa chinensis, Leptochloa dubia); probit analysis

| SMILES | GR50 LEFSS [g ai/ha] | GR80 LEFSS [g ai/ha] |
| --- | --- | --- |
| Nc1cc(-c2ccc(Br)cc2F)nc(C(=O)O)c1Cl [Compound 74] | 6 | 13 |
| COC(=O)c1nc(-c2ccc(Br)cc2F)cc(N)c1Cl [Compound 93] | 6 | 11 |

Same assay, conditions: ORYSS: Oryza sativa (crop); probit analysis

| SMILES | GR20 ORYSS [g ai/ha] |
| --- | --- |
| Nc1cc(-c2ccc(Br)cc2F)nc(C(=O)O)c1Cl [Compound 74] | 4 |
| COC(=O)c1nc(-c2ccc(Br)cc2F)cc(N)c1Cl [Compound 93] | 13 |

Same assay, conditions: SCPJU: Japanese bulrush, Scirpus juncoides; probit analysis

| SMILES | GR50 SCPJU [g ai/ha] | GR80 SCPJU [g ai/ha] |
| --- | --- | --- |
| Nc1cc(-c2ccc(Br)cc2F)nc(C(=O)O)c1Cl [Compound 74] | 1 | 1 |
| COC(=O)c1nc(-c2ccc(Br)cc2F)cc(N)c1Cl [Compound 93] | 1 | 1 |

Same assay, conditions: SEBEX: hemp sesbania, Sesbania exaltata; probit analysis

| SMILES | GR50 SEBEX [g ai/ha] | GR80 SEBEX [g ai/ha] |
| --- | --- | --- |
| Nc1cc(-c2ccc(Br)cc2F)nc(C(=O)O)c1Cl [Compound 74] | 1 | 1 |
| COC(=O)c1nc(-c2ccc(Br)cc2F)cc(N)c1Cl [Compound 93] | 1 | 1 |

Same assay, conditions: post-emergence, 504 h; BRAPP: broadleaf signalgrass, Brachiaria platyphylla; 35 g ai/ha; read-out: Visual Growth Reduction (%) 21 Days After Application BRAPP

| SMILES | pest or weed control at 35 g/ha [%] |
| --- | --- |
| Nc1cc(-c2ccc(Br)cc2F)nc(C(=O)O)c1Cl [Compound 74] | 95 to 100 |
| COC(=O)c1nc(-c2ccc(Br)cc2F)cc(N)c1Cl [Compound 93] | 95 to 100 |

Same assay, conditions: post-emergence, 504 h; BRAPP: broadleaf signalgrass, Brachiaria platyphylla; 70 g ai/ha; read-out: Visual Growth Reduction (%) 21 Days After Application BRAPP

| SMILES | pest or weed control at 70 g/ha [%] |
| --- | --- |
| Nc1cc(-c2ccc(Br)cc2F)nc(C(=O)O)c1Cl [Compound 74] | 95 to 100 |
| COC(=O)c1nc(-c2ccc(Br)cc2F)cc(N)c1Cl [Compound 93] | 95 to 100 |

Same assay, conditions: post-emergence, 504 h; CYPSS: sedge (Cyperus difformis, esculentus, iria); 35 g ai/ha; read-out: Visual Growth Reduction (%) 21 Days After Application CYPSS

| SMILES | pest or weed control at 35 g/ha [%] |
| --- | --- |
| Nc1cc(-c2ccc(Br)cc2F)nc(C(=O)O)c1Cl [Compound 74] | 95 to 100 |
| COC(=O)c1nc(-c2ccc(Br)cc2F)cc(N)c1Cl [Compound 93] | 95 to 100 |

Same assay, conditions: post-emergence, 504 h; CYPSS: sedge (Cyperus difformis, esculentus, iria); 70 g ai/ha; read-out: Visual Growth Reduction (%) 21 Days After Application CYPSS

| SMILES | pest or weed control at 70 g/ha [%] |
| --- | --- |
| Nc1cc(-c2ccc(Br)cc2F)nc(C(=O)O)c1Cl [Compound 74] | 95 to 100 |
| COC(=O)c1nc(-c2ccc(Br)cc2F)cc(N)c1Cl [Compound 93] | 95 to 100 |

Same assay, conditions: post-emergence, 504 h; ECHSS: barnyardgrass (Echinochloa crus-galli), junglerice (Echinochloa colonum); 35 g ai/ha; read-out: Visual Growth Reduction (%) 21 Days After Application ECHSS

| SMILES | pest or weed control at 35 g/ha [%] |
| --- | --- |
| Nc1cc(-c2ccc(Br)cc2F)nc(C(=O)O)c1Cl [Compound 74] | 95 to 100 |
| COC(=O)c1nc(-c2ccc(Br)cc2F)cc(N)c1Cl [Compound 93] | 95 to 100 |

Same assay, conditions: post-emergence, 504 h; ECHSS: barnyardgrass (Echinochloa crus-galli), junglerice (Echinochloa colonum); 70 g ai/ha; read-out: Visual Growth Reduction (%) 21 Days After Application ECHSS

| SMILES | pest or weed control at 70 g/ha [%] |
| --- | --- |
| Nc1cc(-c2ccc(Br)cc2F)nc(C(=O)O)c1Cl [Compound 74] | 95 to 100 |
| COC(=O)c1nc(-c2ccc(Br)cc2F)cc(N)c1Cl [Compound 93] | 95 to 100 |

Same assay, conditions: post-emergence, 504 h; LEFSS: sprangletop (Leptochloa chinensis, Leptochloa dubia); 35 g ai/ha; read-out: Visual Growth Reduction (%) 21 Days After Application LEFSS

| SMILES | pest or weed control at 35 g/ha [%] |
| --- | --- |
| Nc1cc(-c2ccc(Br)cc2F)nc(C(=O)O)c1Cl [Compound 74] | 95 to 100 |
| COC(=O)c1nc(-c2ccc(Br)cc2F)cc(N)c1Cl [Compound 93] | 95 to 100 |

Same assay, conditions: post-emergence, 504 h; LEFSS: sprangletop (Leptochloa chinensis, Leptochloa dubia); 70 g ai/ha; read-out: Visual Growth Reduction (%) 21 Days After Application LEFSS

| SMILES | pest or weed control at 70 g/ha [%] |
| --- | --- |
| Nc1cc(-c2ccc(Br)cc2F)nc(C(=O)O)c1Cl [Compound 74] | 95 to 100 |
| COC(=O)c1nc(-c2ccc(Br)cc2F)cc(N)c1Cl [Compound 93] | 95 to 100 |

Same assay, conditions: post-emergence, 504 h; ORYSS: Oryza sativa; 35 g ai/ha; read-out: Visual Growth Reduction (%) 21 Days After Application ORYSS

| SMILES | pest or weed control at 35 g/ha [%] |
| --- | --- |
| Nc1cc(-c2ccc(Br)cc2F)nc(C(=O)O)c1Cl [Compound 74] | 60 to 74 |
| COC(=O)c1nc(-c2ccc(Br)cc2F)cc(N)c1Cl [Compound 93] | 45 to 59 |

Same assay, conditions: post-emergence, 504 h; ORYSS: Oryza sativa; 70 g ai/ha; read-out: Visual Growth Reduction (%) 21 Days After Application ORYSS

| SMILES | pest or weed control at 70 g/ha [%] |
| --- | --- |
| Nc1cc(-c2ccc(Br)cc2F)nc(C(=O)O)c1Cl [Compound 74] | 60 to 74 |
| COC(=O)c1nc(-c2ccc(Br)cc2F)cc(N)c1Cl [Compound 93] | 60 to 74 |

Same assay, conditions: post-emergence, 504 h; SCPJU: Japanese bulrush, Scirpus juncoides; 35 g ai/ha; read-out: Visual Growth Reduction (%) 21 Days After Application SCPJU

| SMILES | pest or weed control at 35 g/ha [%] |
| --- | --- |
| Nc1cc(-c2ccc(Br)cc2F)nc(C(=O)O)c1Cl [Compound 74] | 95 to 100 |
| COC(=O)c1nc(-c2ccc(Br)cc2F)cc(N)c1Cl [Compound 93] | 95 to 100 |

Same assay, conditions: post-emergence, 504 h; SCPJU: Japanese bulrush, Scirpus juncoides; 70 g ai/ha; read-out: Visual Growth Reduction (%) 21 Days After Application SCPJU

| SMILES | pest or weed control at 70 g/ha [%] |
| --- | --- |
| Nc1cc(-c2ccc(Br)cc2F)nc(C(=O)O)c1Cl [Compound 74] | 95 to 100 |
| COC(=O)c1nc(-c2ccc(Br)cc2F)cc(N)c1Cl [Compound 93] | 95 to 100 |

Same assay, conditions: post-emergence, 504 h; SEBEX: hemp sesbania, Sesbania exaltata; 35 g ai/ha; read-out: Visual Growth Reduction (%) 21 Days After Application SEBEX

| SMILES | pest or weed control at 35 g/ha [%] |
| --- | --- |
| Nc1cc(-c2ccc(Br)cc2F)nc(C(=O)O)c1Cl [Compound 74] | 95 to 100 |
| COC(=O)c1nc(-c2ccc(Br)cc2F)cc(N)c1Cl [Compound 93] | 95 to 100 |

Same assay, conditions: post-emergence, 504 h; SEBEX: hemp sesbania, Sesbania exaltata; 70 g ai/ha; read-out: Visual Growth Reduction (%) 21 Days After Application SEBEX

| SMILES | pest or weed control at 70 g/ha [%] |
| --- | --- |
| Nc1cc(-c2ccc(Br)cc2F)nc(C(=O)O)c1Cl [Compound 74] | 95 to 100 |
| COC(=O)c1nc(-c2ccc(Br)cc2F)cc(N)c1Cl [Compound 93] | 95 to 100 |
